Assay results from patent US11970473B2, “Nootkatone derivatives and methods of using the same” (Arkansas State University—Jonesboro, priority 2021, dated 2024).
Values after ≈ are worked out from the molar mass of the structure shown.

What was measured:
Experiment in all cases: Minimal inhibitory concentration (MIC) assay
Type in all cases: cell-based
[1] = test system: B. subtilis ATCC 6623 (Bs); conditions: Bacillus subtilis, ATCC6623; B. subtilis ATCC 6623; read-out: Antimicrobial activity (MIC) Bs
Procedure: (§1) Minimal inhibitory concentration (MIC) assay The standard microdilution method recommended by the Clinical and Laboratory Standards Institute (CLSI) was used to determine the MIC of the antibiotics. The starting concentration of compounds was 50 μg/ml and 2-fold dilution was done down the 96 honeycomb well plate column. The MIC assay was conducted in triplicates.

[2] = test system: Enterococcus faecium ATCC 700221 (Em21); conditions: Enterococcus faecium, ATCC700221, Enterococcus faecium ATCC 700221; read-out: Antimicrobial activity (MIC) Em21
Procedure: as §1

[3] = test system: S. epidermidis 700296 (Se); conditions: Staphylococcus epidermidis, S. epidermidis 700296; read-out: Antimicrobial activity (MIC) Se
Procedure: as §1

[4] = test system: S. aureus ATCC 33591 (Sa91); conditions: Staphylococcus aureus, ATCC33591; S. aureus ATCC 33591, antibiotic-resistant strain; read-out: Antimicrobial activity (MIC) Sa91
Procedure: as §1

[5] = test system: S. aureus ATCC 33592 (Sa92); conditions: Staphylococcus aureus, ATCC33592; S. aureus ATCC 33592, antibiotic-resistant strain; read-out: Antimicrobial activity (MIC) Sa92
Procedure: as §1

[6] = test system: S. aureus BAA-2312 (Sa12); conditions: Staphylococcus aureus, BAA2312; S. aureus BAA-2312, antibiotic-resistant strain; read-out: Antimicrobial activity (MIC) Sa12
Procedure: as §1

[7] = test system: Enterococcus faecalis ATCC 29212 (Es12); conditions: ATCC29212; Enterococcus faecalis ATCC 29212; read-out: Antimicrobial activity (MIC) Es12
Procedure: as §1

[8] = test system: S. aureus ATCC 700699 (Sa99); conditions: Staphylococcus aureus, ATCC700699; S. aureus ATCC 700699, antibiotic-resistant strain; read-out: Antimicrobial activity (MIC) Sa99
Procedure: as §1

[9] = test system: S. aureus ATCC 25923 (Sa23); conditions: Staphylococcus aureus, ATCC25923; S. aureus ATCC 25923, antibiotic susceptible strain; read-out: Antimicrobial activity (MIC) Sa23
Procedure: as §1

Row | SMILES | MIC [1] | MIC [2] | MIC [3] | MIC [4] | MIC [5] | MIC [6] | MIC [7] | MIC [8] | MIC [9]
1 | C=C(C)[C@@H]1CC=C2c3sc(-c4ccc(Oc5ccc(C(F)(F)F)cn5)cc4)nc3C[C@@H](C)[C@]2(C)C1 [Compound 12, (5R,5aS,7R)-7-isopropenyl-5,5a-dimethyl-2-[4-[[5-(trifluoromethyl)-2-pyridyl]oxy]phenyl]-5,6,7,8-tetrahydro-4H-benzo[g][1,3]benzothiazole] | > 100 µg/mL | > 100 µg/mL | > 100 µg/mL | > 100 µg/mL | > 100 µg/mL | > 100 µg/mL | > 100 µg/mL | > 100 µg/mL | 
2 | C=C(C)[C@@H]1CC=C2c3sc(Nc4ccc(OC(F)(F)F)cc4)nc3C[C@@H](C)[C@]2(C)C1 [Compound 26, (5R,5aS,7R)-7-isopropenyl-5,5a-dimethyl-N-[4-(trifluoromethoxy)phenyl]-5,6,7,8-tetrahydro-4H-benzo[g][1,3]benzothiazol-2-amine] | 100 µg/mL (≈ 230 µM) | > 100 µg/mL | > 100 µg/mL | > 100 µg/mL | > 100 µg/mL | > 100 µg/mL | > 100 µg/mL | > 100 µg/mL | 50 µg/mL (≈ 115 µM)
3 | C=C(C)[C@@H]1CC=C2c3sc(-c4ccc(F)cc4)nc3C[C@@H](C)[C@]2(C)C1 [Compound 18, (5R,5aS,7R)-2-(4-fluorophenyl)-7-isopropenyl-5,5a-dimethyl-5,6,7,8-tetrahydro-4H-benzo[g][1,3]benzothiazole] | > 100 µg/mL | > 100 µg/mL | > 100 µg/mL | 50 µg/mL (≈ 141 µM) | > 100 µg/mL | 25 µg/mL (≈ 70.7 µM) | > 100 µg/mL | > 100 µg/mL | > 100 µg/mL
4 | C=C(C)[C@@H]1CC=C2c3sc(-c4ccccc4O)nc3C[C@@H](C)[C@]2(C)C1 [Compound 13, 2-[(5R,5aS,7R)-7-isopropenyl-5,5a-dimethyl-5,6,7,8-tetrahydro-4H-benzo[g][1,3]benzothiazol-2-yl]phenol] | 50 µg/mL (≈ 142 µM) | > 100 µg/mL | > 100 µg/mL | 100 µg/mL (≈ 284 µM) | > 100 µg/mL | 100 µg/mL (≈ 284 µM) | > 100 µg/mL | > 100 µg/mL | 50 µg/mL (≈ 142 µM)
5 | C=C(C)[C@@H]1CC=C2c3sc(-c4ccc(Cl)cc4)nc3C[C@@H](C)[C@]2(C)C1 [Compound 19, (5R,5aS,7R)-2-(4-chlorophenyl)-7-isopropenyl-5,5a-dimethyl-5,6,7,8-tetrahydro-4H-benzo[g][1,3]benzothiazole] | 12.5 µg/mL (≈ 33.8 µM) | > 100 µg/mL | 50 µg/mL (≈ 135 µM) | 50 µg/mL (≈ 135 µM) | > 100 µg/mL | 25 µg/mL (≈ 67.6 µM) | > 100 µg/mL | 25 µg/mL (≈ 67.6 µM) | 25 µg/mL (≈ 67.6 µM)
6 | C=C(C)[C@@H]1CC=C2c3sc(-c4ccc([N+](=O)[O-])cc4)nc3C[C@@H](C)[C@]2(C)C1 [Compound 23, (5R,5aS,7R)-7-isopropenyl-5,5a-dimethyl-2-(4-nitrophenyl)-5,6,7,8-tetrahydro-4H-benzo [g][1,3]benzothiazole] | > 100 µg/mL | > 100 µg/mL | > 100 µg/mL | > 100 µg/mL | > 100 µg/mL | > 100 µg/mL | > 100 µg/mL | > 100 µg/mL | 
7 | C=C(C)[C@@H]1CC=C2c3sc(Cc4ccccc4)nc3C[C@@H](C)[C@]2(C)C1 [Compound 3, (5R,5aS,7R)-2-benzyl-7-isopropenyl-5,5a-dimethyl-5,6,7,8-tetrahydro-4H-benzo[g][1,3]benzothiazole] | > 100 µg/mL | > 100 µg/mL | > 100 µg/mL | > 100 µg/mL | > 100 µg/mL | > 100 µg/mL | > 100 µg/mL | > 100 µg/mL | > 100 µg/mL
8 | C=C(C)[C@@H]1CC=C2c3sc(-c4cccc(O)c4)nc3C[C@@H](C)[C@]2(C)C1 [Compound 14, 3-[(5R,5aS,7R)-7-isopropenyl-5,5a-dimethyl-5,6,7,8-tetrahydro-4H-benzo[g][1,3]benzothiazol-2-yl]phenol] | > 100 µg/mL | > 100 µg/mL | > 100 µg/mL | > 100 µg/mL | > 100 µg/mL | > 100 µg/mL | > 100 µg/mL | > 100 µg/mL | 50 µg/mL (≈ 142 µM)
9 | C=C(C)[C@@H]1CC=C2c3sc(-c4ccc(F)c(F)c4)nc3C[C@@H](C)[C@]2(C)C1 [Compound 21, (5R,5aS,7R)-2-(3,4-difluorophenyl)-7-isopropenyl-5,5a-dimethyl-5,6,7,8-tetrahydro-4H-benzo[g][1,3]benzothiazole] | > 100 µg/mL | > 100 µg/mL | > 100 µg/mL | > 100 µg/mL | 1.56 µg/mL (≈ 4.2 µM) | > 100 µg/mL | > 100 µg/mL | > 100 µg/mL | 100 µg/mL (≈ 269 µM)
10 | C=C(C)[C@@H]1CC=C2c3sc(-c4ccc(C(F)(F)F)cc4)nc3C[C@@H](C)[C@]2(C)C1 [Compound 22, (5R,5aS,7R)-7-isopropenyl-5,5a-dimethyl-2-[4-(trifluoromethyl)phenyl]-5,6,7,8-tetra-tetrahydro-4H-benzo[g][1,3]benzothiazole] | > 100 µg/mL | > 100 µg/mL | > 100 µg/mL | > 100 µg/mL | > 100 µg/mL | > 100 µg/mL | > 100 µg/mL | > 100 µg/mL | 
11 | C=C(C)[C@@H]1CC=C2c3sc(-c4ccccc4)nc3C[C@@H](C)[C@]2(C)C1 [Compound 7, (5R,5aS,7R)-7-isopropenyl-5,5a-dimethyl-2-phenyl-5,6,7,8-tetrahydro-4H-benzo[g][1,3]benzothiazole] | > 100 µg/mL | > 100 µg/mL | > 100 µg/mL | > 100 µg/mL | > 100 µg/mL | > 100 µg/mL | > 100 µg/mL | > 100 µg/mL | 
12 | C=C(C)[C@@H]1CC=C2c3sc(Nc4ccccc4C(F)(F)F)nc3C[C@@H](C)[C@]2(C)C1 [Compound 27, (5R,5aS,7R)-7-isopropenyl-5,5a-dimethyl-N-[2-(trifluoromethyl)phenyl]-5,6,7,8-tetrahydro-4H-benzo[g][1,3]benzothiazol-2-amine] | > 100 µg/mL | > 100 µg/mL | > 100 µg/mL | > 100 µg/mL | > 100 µg/mL | > 100 µg/mL | > 100 µg/mL | > 100 µg/mL | 
13 | C=C(C)[C@@H]1CC=C2c3sc(Nc4cccc(C(F)(F)F)c4)nc3CC[C@]2(C)[C@H]1C [Compound 28, (5aR,6S,7R)-7-isopropenyl-5a,6-dimethyl-N-[3-(trifluoromethyl)phenyl]-5,6,7,8-tetrahydro-4H-benzo[g][1,3]benzothiazol-2-amine] | > 100 µg/mL | > 100 µg/mL | > 100 µg/mL | > 100 µg/mL | > 100 µg/mL | > 100 µg/mL | > 100 µg/mL | > 100 µg/mL | 
14 | C=C(C)[C@@H]1CC=C2c3sc(Nc4ccccc4[N+](=O)[O-])nc3C[C@@H](C)[C@]2(C)C1 [Compound 29, (5R,5aS,7R)-7-isopropenyl-5,5a-dimethyl-N-(2-nitrophenyl)-5,6,7,8-tetrahydro-4H-benzo[g][1,3]benzothiazol-2-amine] | > 100 µg/mL | > 100 µg/mL | > 100 µg/mL | > 100 µg/mL | > 100 µg/mL | > 100 µg/mL | > 100 µg/mL | > 100 µg/mL | 
15 | C=C(C)[C@@H]1CC=C2c3sc(-c4ccc(C(C)(C)C)cc4)nc3C[C@@H](C)[C@]2(C)C1 [Compound 9, (5R,5aS,7R)-2-(4-tert-butylphenyl)-7-isopropenyl-5,5a-dimethyl-5,6,7,8-tetrahydro-4H-benzo[g][1,3]benzothiazole] | > 100 µg/mL | > 100 µg/mL | > 100 µg/mL | > 100 µg/mL | > 100 µg/mL | > 100 µg/mL | > 100 µg/mL | > 100 µg/mL | 
